# Measured values taken from paper PMC9329436, “Optimization of the 4-anilinoquin(az)oline scaffold as epidermal growth factor receptor (EGFR) inhibitors for chordoma utilizing a toxicology profiling assay platform” (Scientific Reports, 2022).
# How the values were obtained:
# [1] = tested on: CH22 patient-derived chordoma cell line; assay: Cell viability assay (alamarBlue, 72 h), CH22; type: cell-based, human; conditions: n = 4, 72 h
# Description: (§1) Chordoma cell lines were cultured as described previously[10],[12],[33],[34]. Briefly, U-CH1 and U-CH2 cell lines were cultured in 4:1 IMDM:RPMI medium supplemented with 10% fetal bovine serum (FBS) and 1% penicillin/streptomycin in gel-coated flasks. […] CH22, UM-Chor1, U-CH12, and U-CH7 cell lines were cultured in RPMI medium supplemented with 10% FBS and 1% penicillin/streptomycin. The cell lines all undergo regular mycoplasma screening.
# (§2) Cells were seeded in 384 well plates and were treated with test compound in quadruplicate 24 h after plating. Cell viability was assessed at 72 h using alamarBlue (ThermoFisher, USA). […] IC50 values were determined by four-parameter nonlinear regression analyses using GraphPad Prism™ version 8 software (San Diego, CA).
# [2] = tested on: U-CH12 patient-derived chordoma cell line; assay: Cell viability assay (alamarBlue, 72 h), U-CH12; type: cell-based, human; conditions: n = 4, 72 h
# Description: as §1, §2
# [3] = target: EGFR (Homo sapiens, UniProt P00533); assay: ProQinase in-cell EGFR assay (EGFR phosphorylation in A431 cells); type: cell-based; set-up: This cell line endogenously expresses a high level of EGFR; endogenous in cells; host or cells: A431; conditions: ProQinase in-cell EGFR assay, A431 cells, n = 1
# Chain of EGFR (P00533 25-1210): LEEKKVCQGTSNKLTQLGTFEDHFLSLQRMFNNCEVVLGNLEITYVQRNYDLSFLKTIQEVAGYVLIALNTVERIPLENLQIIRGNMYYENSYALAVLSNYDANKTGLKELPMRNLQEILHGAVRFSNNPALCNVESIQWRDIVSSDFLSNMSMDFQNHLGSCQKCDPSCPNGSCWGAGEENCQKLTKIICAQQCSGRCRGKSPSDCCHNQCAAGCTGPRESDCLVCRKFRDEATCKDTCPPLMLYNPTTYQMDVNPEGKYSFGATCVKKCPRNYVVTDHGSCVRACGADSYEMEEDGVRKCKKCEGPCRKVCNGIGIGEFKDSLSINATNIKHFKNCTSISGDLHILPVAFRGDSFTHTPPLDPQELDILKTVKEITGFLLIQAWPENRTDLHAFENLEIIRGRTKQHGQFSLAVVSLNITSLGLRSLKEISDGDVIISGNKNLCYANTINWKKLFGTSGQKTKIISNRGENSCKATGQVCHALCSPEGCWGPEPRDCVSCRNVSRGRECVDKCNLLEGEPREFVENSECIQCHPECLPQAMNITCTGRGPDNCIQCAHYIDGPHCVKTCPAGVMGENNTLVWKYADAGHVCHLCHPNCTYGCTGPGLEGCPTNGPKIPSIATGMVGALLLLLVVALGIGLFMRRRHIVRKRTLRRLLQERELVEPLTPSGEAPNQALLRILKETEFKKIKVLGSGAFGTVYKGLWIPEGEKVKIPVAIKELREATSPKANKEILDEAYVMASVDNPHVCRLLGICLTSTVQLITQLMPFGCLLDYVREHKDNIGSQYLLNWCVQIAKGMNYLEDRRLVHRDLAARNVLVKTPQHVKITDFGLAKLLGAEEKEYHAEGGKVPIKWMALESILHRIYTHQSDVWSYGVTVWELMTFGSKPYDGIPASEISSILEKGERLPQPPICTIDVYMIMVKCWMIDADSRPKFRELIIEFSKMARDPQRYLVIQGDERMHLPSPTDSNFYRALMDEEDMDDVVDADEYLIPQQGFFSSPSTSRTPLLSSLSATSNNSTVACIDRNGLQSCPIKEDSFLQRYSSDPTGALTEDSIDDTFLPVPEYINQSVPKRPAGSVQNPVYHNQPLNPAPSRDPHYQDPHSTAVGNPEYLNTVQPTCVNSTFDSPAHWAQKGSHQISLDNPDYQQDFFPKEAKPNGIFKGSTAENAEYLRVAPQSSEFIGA
# Text: In addition, we ran an EGFR in-cell target engagement assay, measuring in-cell EGFR phosphorylation, using the human epidermoid carcinoma cell line A431. This cell line endogenously expresses a high level of EGFR, and stimulation of these cells with human epidermal growth factor (EGF) results in receptor tyrosine autophosphorylation.
# [4] = tested on: U-CH2 chordoma cell line; assay: Cell viability assay (alamarBlue, 72 h), U-CH2; type: cell-based, human; conditions: n = 4, 72 h
# Procedure, shortened: (§3)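 Cells grown in 4:1 IMDM:RPMI with 10% FBS on gel-coated flasks, dosed in quadruplicate 24 h after seeding in 384-well plates.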
# [5] = tested on: U-CH1 chordoma cell line; assay: Cell viability assay (alamarBlue, 72 h), U-CH1; type: cell-based, human; conditions: n = 4, 72 h
# Procedure, shortened: as §3
# [6] = tested on: WS1 human fibroblast cell line; assay: Cell viability assay, WS1 toxicity control; type: cell-based; conditions: n = 4, nonspecific toxicity control
# Description: as §2
# [7] = tested on: UM-Chor1 patient-derived chordoma cell line; assay: Cell viability assay (alamarBlue, 72 h), UM-Chor1; type: cell-based, human; conditions: n = 4, 72 h
# Description: as §1, §2
# [8] = tested on: U-CH7 patient-derived chordoma cell line; assay: Cell viability assay (alamarBlue, 72 h), U-CH7; type: cell-based, human; conditions: n = 4, 72 h
# Description: as §1, §2
# [9] = tested on: HL60 cells; assay: AsedaSciences SYSTEMETRIC Cell Health Screen (flow cytometry toxicity profiling); conditions: for CC: Cell Cycle score / CM: Cell morphology score / CMI: Cell membrane integrity score / GSH: Glutathione score / MMP: Mitochondrial membrane depolarization score / NMI1: Nuclear membrane integrity 1 score / NMI2: Nuclear membrane integrity 2 score / ROS: Reactive superoxide species score / CHI: Cell Health Index: HL60, 4 h, 5 nM–100 µM; for CC: Cell Cycle score / CM: Cell morphology score / CMI: Cell membrane integrity score / GSH: Glutathione score / MMP: Mitochondrial membrane depolarization score / NMI1: Nuclear membrane integrity 1 score / NMI2: Nuclear membrane integrity 2 score / ROS: Reactive superoxide species score: probability 0–1, n = 2; for CHI: Cell Health Index: probability (0–1) of high-risk class, n = 2
# Procedure, shortened: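 HL60 cells (100,000 per well) exposed 4 h at 37 °C, 5% CO2 to 10-step 3× dilutions (5 nM–100 µM), in duplicate. Cells then stained with mitochondrial and cell-stress reporter dyes and read by ungated flow cytometry over twelve parameters. Cell Health Index and eight endpoint scores come from an ML classifier trained on 300 high/low-risk compounds.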
# [10] = SYSTEMETRIC Cell Health Screen, assay n=2
IC50 [3] [µM],SMILES,IC50 [1] [µM],IC50 [2] [µM],IC50 [4] [µM],IC50 [5] [µM],IC50 [6] [µM],IC50 [7] [µM],IC50 [8] [µM],CC: Cell Cycle score [9],CM: Cell morphology score [9],CMI: Cell membrane integrity score [9],GSH: Glutathione score [9],MMP: Mitochondrial membrane depolarization score [9],NMI1: Nuclear membrane integrity 1 score [9],NMI2: Nuclear membrane integrity 2 score [9],ROS: Reactive superoxide species score [9],CHI: Cell Health Index [9],other results
> 20,C#Cc1cccc(Nc2ncnc3cc(C(F)(F)F)ccc23)c1 [Compound 16],8,7.5,15,12,18,31,63,0.92,1.00,0.87,0.79,1.00,0.6,0.93,1.00,0.78,–
> 20,C#Cc1cccc(Nc2ncnc3cc(C#N)ccc23)c1 [Compound 17],> 100,> 100,> 100,65,> 100,> 100,> 100,0.25,0.43,0.052,0.04,0.10,0.37,0.10,0.41,0.45,–
1.9,C#Cc1cccc(Nc2ncnc3cc4c(cc23)OCCO4)c1 [Compound 21],> 100,> 100,> 100,8.8,> 100,64,> 100,0.77,0.053,0.91,0.39,0.91,0.73,0.83,0.85,0.56,–
0.76,C#Cc1ccc(F)c(Nc2ncnc3ccc(I)cc23)c1 [Compound 34],> 100,> 100,> 100,27,> 100,> 100,> 100,0.25,0.025,0.014,0.044,0.030,0.17,0.078,0.074,0.18,–
1.9,C#Cc1cccc(Nc2ccnc3ccc(I)cc23)c1F [Compound 35],> 100,> 100,> 100,8.9,85,> 100,> 100,0.12,0.0052,0.78,0.16,0.47,0.62,0.62,0.46,0.37,–
2.7,C#Cc1cc(Nc2ncnc3ccc(I)cc23)ccc1F [Compound 36],> 100,> 100,> 100,2.7,> 100,> 100,> 100,0.038,0.011,0.31,0.068,0.13,0.24,0.048,0.35,0.27,–
2,C#Cc1cc(Nc2ncnc3ccc(I)cc23)ccc1Cl [Compound 37],> 100,> 100,5,31,> 100,> 100,> 100,0.080,0.26,0.54,0.18,0.24,0.41,0.33,0.91,0.33,–
5.2,C#Cc1ccc(F)c(Nc2ncnc3cc(I)ccc23)c1 [Compound 38],> 100,> 100,> 100,15,> 100,> 100,> 100,0.98,1.00,1.00,1.00,0.96,0.99,1.00,1.00,0.88,–
1.7,C#Cc1cccc(Nc2ccnc3cc(I)ccc23)c1F [Compound 39],40,33,15,2.4,40,62,49,0.64,0.98,0.30,0.92,0.60,0.15,0.75,0.99,0.43,–
3.6,C#Cc1cc(Nc2ncnc3cc(I)ccc23)ccc1F [Compound 40],50,> 100,> 100,> 100,> 100,> 100,> 100,0.28,0.049,0.26,0.033,0.59,0.46,0.33,0.34,0.38,U-CH2 IC50 [4]: no activity; U-CH1 IC50 [5]: no activity
0.29,C#Cc1ccc(F)c(Nc2ncnc3cc(OC)c(OC)cc23)c1 [Compound 42],4.2,> 100,20,6.7,20,> 100,> 100,0.67,0.31,0.78,0.25,0.89,0.13,0.85,0.63,0.48,–

SMILES,IC50 [3] [µM],IC50 [1] [µM],IC50 [2] [µM],IC50 [4] [µM],IC50 [5] [µM],IC50 [6] [µM],IC50 [7] [µM],IC50 [8] [µM],CC: Cell Cycle score [9],CM: Cell morphology score [9],CMI: Cell membrane integrity score [9],GSH: Glutathione score [9],MMP: Mitochondrial membrane depolarization score [9],NMI1: Nuclear membrane integrity 1 score [9],NMI2: Nuclear membrane integrity 2 score [9],ROS: Reactive superoxide species score [9],CHI: Cell Health Index [9],other results
C#Cc1cccc(Nc2c(C#N)cnc3cc(I)ccc23)c1 [Compound 32],2.7,> 100,> 100,> 100,> 100,> 100,> 100,> 100,0.95,1.00,1.00,0.98,0.99,0.95,0.94,0.99,0.81,"Cell Health Toxcity Profile CC (DyeCycle Violet) [9, 10]: 0.95; Cell Health Toxcity Profile CM (Cell morphology) [9, 10]: 1.00; Cell Health Toxcity Profile CMI (Cell membrane integrity) [9, 10]: 1.00; Cell Health Toxcity Profile GSH (Glutathione) [9, 10]: 0.98; Cell Health Toxcity Profile MMP (Mitochondrial membrane depolarization) [9, 10]: 0.99; Cell Health Toxcity Profile NMI1 (Nuclear membrane integrity 1) [9, 10]: 0.95; Cell Health Toxcity Profile NMI2 (Nuclear membrane integrity 2) [9, 10]: 0.94; Cell Health Toxcity Profile ROS (Reactive superoxide species) [9, 10]: 0.99; Cell Health Toxcity Profile CHI ([9]; SYSTEMETRIC Cell Health Screen, classifier output, assay n=2): 0.81"
